{"source": "paper PMC2920039", "about": "(Bioorganic & medicinal chemistry, 2010)", "key": {"[1]": {"biological_target": "CB2 receptor (Homo sapiens, UniProt P34972)", "sequence (P34972 whole entry)": "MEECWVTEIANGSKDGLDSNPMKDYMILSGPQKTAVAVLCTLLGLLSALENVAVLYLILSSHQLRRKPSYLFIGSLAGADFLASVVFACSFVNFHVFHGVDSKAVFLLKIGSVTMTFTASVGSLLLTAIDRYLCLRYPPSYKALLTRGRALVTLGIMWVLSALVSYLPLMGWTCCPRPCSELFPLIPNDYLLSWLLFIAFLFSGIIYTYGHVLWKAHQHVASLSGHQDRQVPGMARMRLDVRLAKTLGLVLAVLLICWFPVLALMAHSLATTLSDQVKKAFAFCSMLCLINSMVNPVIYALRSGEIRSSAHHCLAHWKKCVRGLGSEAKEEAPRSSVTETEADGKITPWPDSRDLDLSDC", "format": "binding"}, "[2]": {"system": "CB2 receptor", "settings": "cited from earlier work"}, "[3]": {"system": "CB2 receptor", "settings": "cited from earlier work", "remark": "listed apart in the source"}, "[4]": {"settings": "cited from earlier work"}}}
{"smiles": "CCCCCCC(C)(C)c1ccc([C@H]2CCC[C@@H](O)C2)c(OC)c1", "note": "(relative stereo) [JWH-441, (1R*,3S*)3-[2-Methoxy-4-(1,1-dimethylheptyl)phenyl]cyclohexanol]", "values": [{"measurement": "CB1/CB2 (ratio of Ki)", "setting": "[1]", "result": ">12"}]}
{"smiles": "CCCCCCC(C)(C)c1cc(OC)c2c(c1)OC(C)(C)C1CC=C(C)CC21", "note": "(stereo not drawn) [1-methoxy-3-(dimethylheptyl)-•^8-THC]", "values": [{"measurement": "selectivity for the CB2 receptor", "setting": "[2]", "result": 12, "unit": "fold"}, {"measurement": "Ki", "setting": "[2]; read-out: Ki CB2", "result": 57, "unit": "nM"}]}
{"smiles": "CCCC(C)(C)c1ccc2c(c1)OC(C)(C)[C@@H]1CC=C(C)C[C@@H]21", "note": "[JWH-133]", "values": [{"measurement": "agonism at the CB2 receptor", "setting": "[3]", "result": "full agonist"}, {"measurement": "activity in the mouse model of cannabinoid activity", "setting": "[4]", "result": "inactive"}, {"measurement": "selectivity for the CB2 receptor", "setting": "[2]", "result": 200, "unit": "fold"}]}
